Results reported in patent publication US9938322B2, “β-hairpin peptidomimetics” (priority 2013, dated 2018).
Where a SMILES comes first, the peptide text is derived from it. [ ]: non-standard residue; d: D form. Cha = N[C@@H](CC1CCCCC1)C(=O)O; Tle = CC(C)(C)[C@H](N)C(=O)O; dDab = NCC[C@@H](N)C(=O)O; Orn = NCCC[C@H](N)C(=O)O; Dab = NCC[C@H](N)C(=O)O; Dap = NC[C@H](N)C(=O)O

Tested on: human red blood cells (hRBC)
Experiment: Hemolysis of human red blood cells
Format: cell-based
Conditions: red cells of human, 1 h, 100
Procedure, shortened: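 Washed fresh human erythrocytes (20% v/v, about 0.9×10^9 cells/ml final) incubated with peptide at 100 μg/ml for 1 h at 37° C with shaking. Supernatant OD540 read; hemolysis expressed relative to 2.5% Triton X-100 (100%) and PBS with 0.001% acetic acid (0%).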

Structure (SMILES)	Hemolysis at 100 μg/ml
CC(C)C[C@@H]1NC(=O)[C@@H]2CCCN2C(=O)[C@H]2CCCN2C(=O)[C@H](CO)NC(=O)[C@H](CC(=O)O)NC(=O)[C@H](C(C)(C)C)NC(=O)[C@H](CCN)NC(=O)[C@H](Cc2c[nH]c3ccccc23)NC(=O)[C@H](CCN)NC(=O)[C@@H](CCN)NC(=O)[C@H](CCCN)NC(=O)[C@H](CCN)NC(=O)[C@H](Cc2ccc(O)cc2)NC(=O)[C@H](CCN)NC1=O [compound 159] (cyclo(L[Dab]Y[Dab][Orn][dDab][Dab]W[Dab][Tle]DS[dP]P))	1%
C[C@@H]1NC(=O)[C@H](CC2CCCCC2)NC(=O)[C@H](CCN)NC(=O)[C@H](Cc2c[nH]c3ccccc23)NC(=O)[C@H](CCN)NC(=O)[C@@H](CCN)NC(=O)[C@H](CCCN)NC(=O)[C@H](CCN)NC(=O)[C@H](Cc2ccc(O)cc2)NC(=O)[C@H](CO)NC(=O)[C@H](Cc2c[nH]c3ccccc23)NC(=O)[C@@H]2CCCN2C(=O)[C@H]2CCCN2C(=O)[C@H](CO)NC1=O [compound 70] (cyclo(WSY[Dab][Orn][dDab][Dab]W[Dab][Cha]AS[dP]P))	5%
CC(C)[C@@H]1NC(=O)[C@@H]2CCCN2C(=O)[C@H]2CCCN2C(=O)[C@H](CO)NC(=O)[C@H](C)NC(=O)[C@H](C(C)(C)C)NC(=O)[C@H](CCN)NC(=O)[C@H](Cc2c[nH]c3ccccc23)NC(=O)[C@H](CCN)NC(=O)[C@@H](CCN)NC(=O)[C@H](CCCN)NC(=O)[C@H](CCN)NC(=O)[C@H](Cc2ccc(O)cc2)NC(=O)[C@H](C)NC1=O [compound 46] (cyclo(VAY[Dab][Orn][dDab][Dab]W[Dab][Tle]AS[dP]P))	1%
CC(C)C[C@@H]1NC(=O)[C@@H]2CCCN2C(=O)[C@H]2CCCN2C(=O)[C@H](CO)NC(=O)[C@H](C)NC(=O)[C@H](C(C)(C)C)NC(=O)[C@H](CCN)NC(=O)[C@H](Cc2c[nH]c3ccccc23)NC(=O)[C@H](CCN)NC(=O)[C@@H](CCN)NC(=O)[C@H](CCCN)NC(=O)[C@H](CN)NC(=O)[C@H](Cc2ccc(O)cc2)NC(=O)[C@H](CO)NC1=O [compound 91] (cyclo(LSY[Dap][Orn][dDab][Dab]W[Dab][Tle]AS[dP]P))	0%
C[C@@H]1NC(=O)[C@H](Cc2c[nH]c3ccccc23)NC(=O)[C@@H]2CCCN2C(=O)[C@H]2CCCN2C(=O)[C@H](CO)NC(=O)[C@H](C)NC(=O)[C@H](C(C)(C)C)NC(=O)[C@H](CCN)NC(=O)[C@H](Cc2c[nH]c3ccccc23)NC(=O)[C@H](CCN)NC(=O)[C@@H](CCN)NC(=O)[C@H](CCCCN)NC(=O)[C@H](CCN)NC(=O)[C@H](Cc2ccc(O)cc2)NC1=O [compound 78] (cyclo(WAY[Dab]K[dDab][Dab]W[Dab][Tle]AS[dP]P))	1%
CC(C)C[C@@H]1NC(=O)[C@@H]2CCCN2C(=O)[C@H]2CCCN2C(=O)[C@H]([C@@H](C)O)NC(=O)[C@H](CO)NC(=O)[C@H](C(C)(C)C)NC(=O)[C@H](CCN)NC(=O)[C@H](Cc2c[nH]c3ccccc23)NC(=O)[C@H](CCN)NC(=O)[C@@H](CCN)NC(=O)[C@H](CCCN)NC(=O)[C@H](CCN)NC(=O)[C@H](Cc2ccc(O)cc2)NC(=O)[C@H](C)NC1=O [compound 131] (cyclo(LAY[Dab][Orn][dDab][Dab]W[Dab][Tle]ST[dP]P))	0.1%
CC(C)C[C@@H]1NC(=O)[C@@H]2CCCN2C(=O)[C@H]2CCCN2C(=O)[C@H](CO)NC(=O)[C@H](C)NC(=O)[C@H](CC2CCCCC2)NC(=O)[C@H](CCN)NC(=O)[C@H](Cc2c[nH]c3ccccc23)NC(=O)[C@H](CCN)NC(=O)[C@@H](CCN)NC(=O)[C@H](CCCN)NC(=O)[C@H](CCN)NC(=O)[C@H](Cc2ccc(O)cc2)NC(=O)[C@H](C)NC1=O [compound 127] (cyclo(LAY[Dab][Orn][dDab][Dab]W[Dab][Cha]AS[dP]P))	1%
